Experimental data reported in patent US8629178B2, “Sodium tanshinone IIA sulfonate hydrate and preparation method and use thereof” (priority 2009, dated 2014).

Tests used:
[1] = Accelerated stability test (increase of the relative substances by HPLC); assay type: physicochemical; conditions: RH75%, 30° C., lucifuge, sealed in ampoules, sampling time 6 month
Method: In addition, the accelerated stability test performed according to the Pharmacopoeia of the People's Republic of China (2005 Edition) confirmed that the sodium tanshinone IIA sulfonate hydrate crystal had better storage stability than anhydrous sodium tanshinone IIA sulfonate, and thus can be stably stored for a more longer period.
Under RH75%, 30° C. and lucifuge condition, the samples of sodium tanshinone IIA sulfonate hydrate crystals and anhydrous sodium tanshinone IIA sulfonate were separately sealed in ampoules for accelerated stability test, chromatographic conditions: column Kromasil C18 (250 mm×4.6 mm, 5 μm), mobile phase: methanol—0.02 mol/L potassium dihydrogen phosphate solution (adjusted with phosphoric acid to pH=4) (60:40), detection wavelength: 271 nm, flow rate: 1 ml/min, to measure increase extent of the relative substances (see results in Tables 1-2).

[2] = Hygroscopicity test; assay type: physicochemical; conditions: 25° C.; for Relative to 0 h, weight gain %: relative humidity 75%, sampling time 48 h
Description: The hygroscopicity test performed according to the Pharmacopoeia of the People's Republic of China (2005 Edition) confirmed that the sodium tanshinone IIA sulfonate hydrate of the present invention is much lower than anhydrous sodium tanshinone IIA sulfonate.
Samples of sodium tanshinone IIA sulfonate hydrates and anhydrous sodium tanshinone IIA sulfonate: anhydrous sodium tanshinone IIA sulfonate and the hydrates of the present invention, about 5 g for each, were placed in dry watch glass with constant weight, precisely weighed, subjected to the test at 25° C. and a relative humidity (RH) of 75%, separately sampled at 0 h and 48 h of the test, and the percentages of weight gain due to hygroscopicity was calculated.

[3] = system: calcium paradox cardiac muscle tissue; assay: Protection effects on calcium paradox cardiac muscle (ex vivo heart perfusion, Langendorff); design: species or system guinea pigs; conditions: hydrates 32 mg/L, Iproveratril 2.1 mg/L; for Calcium uptake, x ± S μmol/min/g, dry weight: cardiac muscle tissue; for Calcium uptake, x ± S μmol/min/g, dry weight / Protein release, x ± S mg/min/g, dry weight: 8 guinea pigs per group; for Protein release, x ± S mg/min/g, dry weight: coronary artery effluent of 20 min after calcium restored; for Calcium uptake decrease rate, % / Protein release decrease rate, %: relative to calcium paradox group
Method: 48 Healthy guinea pigs, body weight 280-360 g, were divided into 6 groups, 8 guinea pigs per group, separately comprising: normal control group, calcium paradox group, iproveratril positive control group, 3 drug-administrated groups, the animals were fasted for one night before test, intraperitoneally injected with heparin 0.5 mg/kg, intraperitoneally injected with pentobarbital sodium 30 mg/kg after 20 min, their chests were opened after anesthesia, and hearts were taken out quickly, immersed in Kreb's-Henseleit (K-H) perfusion solution as cooled with ice, after aortic cannulation, the hearts were placed in ex vivo heart perfusion device with constant temperature and constant pressure. […] The effluent of coronary artery of 20 min when calcium-containing perfusion solution was restored was collected, the protein release amounts mg/min/g drywt and cardiac muscle tissue calcium uptake μmol/g drywt in the collected coronary artery effluents were measured according to the reference document.

[4] = system: arrhythmia induced by calcium chloride in rats; assay: Effects on arrhythmia induced by calcium chloride in rats; assay type: in vivo, SD rats; conditions: intravenous injection, 10 animals per group, 2.5% calcium chloride 100 mg/kg, hydrates 10 mg/kg, Quinidine 13.5 mg/kg
Method: 50 SD rats were provided, male and female, body weight 226±31 g, randomly divided into 5 groups, separately administered by intravenous injection with physiological saline, Quinidine, […] The rats were anaesthetized with 3% pentobarbital sodium 40 mg·kg^−1, fixed in supine position on operation table, injected via lingual vein for 6 minutes, quickly intravenously injected (completed injection in 5 s) with 2.5% calcium chloride 100 mg·kg^−1 (0.4 ml/100 g), the number of animal with ventricular fibrillation and the number of died animals were recorded.

[5] = system: ischemic reperfusion brain tissues of rats; assay: Effects on rat ischemic reperfusion (NO, NOS, MDA, SOD in brain tissue); assay type: in vivo, Wistar rats; conditions: for Result of the ischemic reperfusion test in words: compared with sodium tanshinone IIA sulfonate 1.5 hydrate
Method: 36 Male Wistar rats, body weight 250-300 g, were randomly divided into 3 groups: sham operation group, ischemic reperfusion group, and group of drug of the invention, 12 rats per group. As for group of drug of the invention: the rats were peritoneally administered with sodium tanshinone IIA sulfonate 1.5 hydrate in physiological saline, does of 40 mg/kg, twice per day, for consecutive 7 days, and subjected to cerebral ischemia operation 60 min after the last administration; the rats of sham operation group and ischemic reperfusion group were administered with the same volume of isometric physiological saline, respectively.
The rats were anesthetized with 10% chloral hydrate (3.5 ml/kg) by peritoneal injection, fixed in supine position, modeled by the improved Zea Longa thread occlusion method in document [Journal of Shanghai Jiaotong University (Medicine), 2007, 27(10):1218-1222]; in the sham operation group, thread was merely inserted 10 mm, and other steps were the same as the model group, animals appeared operation-side Horner syndrome and opposite-side movement disorder were deemed as successfully established models. After successful establishment of models, the animals were administered in the same dose as above twice per day, and the sham operation group and ischemic reperfusion group were administered with the same volume of isometric physiological saline, respectively. The thread was drawn out 2 h after model establishment, the rats were executed 24 h after reperfusion, their brains were taken out quickly and weighed. Physiological saline was used to prepare 10% brain tissue homogenate solution at low temperature, centrifuged at low temperature, 3000 r/min for 10 min, the deposit was discarded, the supernatant was taken up and tested to determine SOD, MDA, NO, NOS contents or activities according to the specifications of the corresponding commercial SOD, MDA, NO, NOS kits, the results are shown in Table 4.

[6] = rat brain tissue homogenate, 40 mg/kg peritoneally twice per day, 2 h ischemia, 24 h reperfusion

Relative to 0 month, multiple of the relative substances [1]	Relative to 0 h, weight gain % [2] [%]	Hygroscopicity in words ([2]; compared with the sodium tanshinone IIA sulfonate hydrates, RH 75%, 48 h)	Compound	Calcium uptake, x ± S μmol/min/g, dry weight [3]	Protein release, x ± S mg/min/g, dry weight [3]	Calcium uptake decrease rate, % [3] [%]	Protein release decrease rate, % [3] [%]	Arrhythmic animal number (n), Heart arrest [4] [n]	Arrhythmic animal number (n), Ventricular fibrillation [4] [n]	Result of the ischemic reperfusion test in words [5]	MDA [5, 6] [nmol/mL]	NO [5, 6] [µmol/L]	NOS [5, 6] [U/ml]	SOD [5, 6] [U/ml]
1.21	11.43	much higher	Cc1c(S(=O)(=O)[O-])oc2c1C(=O)C(=O)c1c-2ccc2c1CCCC2(C)C.[Na+] [Anhydrous Sodium Tanshinone IIA Sulfonate, reference compound]											
0.31	1.25		Sodium Tanshinone IIA Sulfonate 2.5 Hydrate	35.4 ± 3.1 μmol/min/g, dry weight	2.5 ± 0.2 mg/min/g, dry weight	25.6	50	5	6	results similar to those of the sodium tanshinone IIA sulfonate 1.5 hydrate				

The remaining lines, values behind:

Compound	Relative to 0 month, multiple of the relative substances [1]	Relative to 0 h, weight gain % [2] [%]	Hygroscopicity in words ([2]; compared with the sodium tanshinone IIA sulfonate hydrates, RH 75%, 48 h)	Calcium uptake, x ± S μmol/min/g, dry weight [3]	Protein release, x ± S mg/min/g, dry weight [3]	Calcium uptake decrease rate, % [3] [%]	Protein release decrease rate, % [3] [%]	Arrhythmic animal number (n), Heart arrest [4] [n]	Arrhythmic animal number (n), Ventricular fibrillation [4] [n]	Result of the ischemic reperfusion test in words [5]	MDA [5, 6] [nmol/mL]	NO [5, 6] [µmol/L]	NOS [5, 6] [U/ml]	SOD [5, 6] [U/ml]
COc1ccc(CCN(C)CCCC(C#N)(c2ccc(OC)c(OC)c2)C(C)C)cc1OC (stereo not drawn) [Iproveratril, reference compound]				36.9 ± 2.5 μmol/min/g, dry weight	2.6 ± 0.2 mg/min/g, dry weight	22.5	48							
C=C[C@H]1C[N@@]2CC[C@H]1C[C@@H]2[C@@H](O)c1ccnc2ccc(OC)cc12 [Quinidine, reference compound]								4	6					
Sodium Tanshinone IIA Sulfonate 0.5 Hydrate	0.34	7.96		34.5 ± 2.4 μmol/min/g, dry weight	2.4 ± 0.2 mg/min/g, dry weight	27.5	52	4	5	results similar to those of the sodium tanshinone IIA sulfonate 1.5 hydrate				
Sodium Tanshinone IIA Sulfonate 1.5 Hydrate	0.25	4.12		35.2 ± 2.8 μmol/min/g, dry weight	2.4 ± 0.3 mg/min/g, dry weight	26.1	52	6	5		2.26 ± 0.62	24 ± 6.35	22 ± 5.31	245 ± 21.59
